Where “and” joins values, the source holds several entries; their conditions need not be identical. Equal values may be shown once.

Data on 5 compounds can be found in US11331299B2, “Medicinal use of serrulatane diterpenes” (The University of Sydney, priority 2016, dated 2022).

Data set [1] concerns the target Deacetylase, Sirtuin SIRT3 (Homo sapiens, UniProt Q9NTG7). Put plainly: Deacetylase, Sirtuin SIRT3 (PanLab). To be noted: assay year 2014, read-out: % Control Response. It is filed as biochemical.
Another data set deals with H3K79 me2. Nature of the data set: Cell-based detection methyl modifications. To be noted: read-out: % Inhibition of Control Values.
Another data set deals with SETD2(h) (Homo sapiens, UniProt Q9BYW2). Put plainly: Epigenetic enzyme assay, Methyltransferases (MTs). It is filed as biochemical. To be noted: for inhibition at 10 µM: read-out: % Inhibition of Control Values.
For another data set, the target named is GCN5L2(h) (Homo sapiens, UniProt Q92830). Put plainly: Epigenetic enzyme assay, Histone acetyltransferases (HATs). As to conditions: 10 μM; read-out: % Inhibition of Control Values. It is filed as biochemical.
Data set [2] deals with PKBalpha/AKT1(h) (substrate histone H3 full length) (Homo sapiens, UniProt P31749). Put plainly: Epigenetic enzyme assay, Kinases. As to conditions: read-out: % Inhibition of Control Values. Type of data set: biochemical.
In data set [3] the target is Deacetylase, Sirtuin SIRT2 (Homo sapiens, UniProt Q8IXJ6). Put plainly: Deacetylase, Sirtuin SIRT2 (PanLab). It is filed as biochemical. To be noted: assay year 2014, read-out: % Control Response.
The target in data set [4] is T1, Glycine N-methyltransferase (h) (Homo sapiens, UniProt Q14749).
T1 sequence (Q14749 1-295): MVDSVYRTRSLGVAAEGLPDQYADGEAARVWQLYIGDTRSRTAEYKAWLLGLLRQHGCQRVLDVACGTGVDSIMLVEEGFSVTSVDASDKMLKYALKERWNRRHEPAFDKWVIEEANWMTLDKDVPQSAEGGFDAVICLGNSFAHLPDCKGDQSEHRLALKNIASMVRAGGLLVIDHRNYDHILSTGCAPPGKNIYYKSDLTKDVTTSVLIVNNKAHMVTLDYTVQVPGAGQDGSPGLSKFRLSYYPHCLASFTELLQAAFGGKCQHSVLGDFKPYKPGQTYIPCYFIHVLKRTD
Nature of the data set: Epigenetic enzyme assay, Small molecule methyltransferases. It is filed as biochemical. To be noted: read-out: % Inhibition of Control Values.

For a further data set, the target named is T2, Monoamine Oxidase MAO-A (Homo sapiens, UniProt P21397).
T2 construct: host or cells: Insect Hi5 cells
T2 sequence (P21397 1-527): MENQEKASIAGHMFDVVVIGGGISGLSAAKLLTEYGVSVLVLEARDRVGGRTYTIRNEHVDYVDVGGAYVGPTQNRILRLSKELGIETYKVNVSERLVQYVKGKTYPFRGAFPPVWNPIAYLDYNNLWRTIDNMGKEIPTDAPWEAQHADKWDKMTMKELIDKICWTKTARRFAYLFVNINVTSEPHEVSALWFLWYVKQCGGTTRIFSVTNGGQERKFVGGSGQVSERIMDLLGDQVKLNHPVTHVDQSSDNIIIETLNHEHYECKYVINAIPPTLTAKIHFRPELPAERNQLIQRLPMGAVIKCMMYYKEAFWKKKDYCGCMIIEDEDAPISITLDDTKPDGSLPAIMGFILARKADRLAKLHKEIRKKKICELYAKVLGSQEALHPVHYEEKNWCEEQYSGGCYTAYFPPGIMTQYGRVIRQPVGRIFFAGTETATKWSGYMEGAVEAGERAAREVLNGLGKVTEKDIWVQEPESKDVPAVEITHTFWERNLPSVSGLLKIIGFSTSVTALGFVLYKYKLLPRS
Put plainly: Monoamine Oxidase MAO-A. It is filed as biochemical. As to conditions: for remaining activity at 10 µM: read-out: % Control Response.

For data set [5], the target named is PIM1(h) (histone H3 full length substrate) (Homo sapiens, UniProt P11309). Put plainly: Epigenetic enzyme assay, Kinases. It is filed as biochemical. As to conditions: read-out: % Inhibition of Control Values.
The next data set deals with Deacetylase, Histone 3 (Homo sapiens, UniProt O15379). Nature of the data set: Deacetylase, Histone 3 (PanLab). It is filed as biochemical. To be noted: assay year 2014, read-out: % Control Response.
For data set [6], the target named is Nitric Oxide Synthase, Neuronal (nNOS) (Rattus norvegicus, UniProt P29476). Nature of the data set: Nitric Oxide Synthase, Neuronal (nNOS). It is filed as biochemical. As to conditions: assay year 2014, read-out: % Control Response.
For the next data set, the target named is NSD1 (h) (Homo sapiens, UniProt Q96L73). Put plainly: Epigenetic enzyme assay, Methyltransferases (MTs). Type of data set: biochemical. As to conditions: for inhibition at 10 µM: read-out: % Inhibition of Control Values.
The target in the next data set is Deacetylase, Histone 6 (Homo sapiens, UniProt Q9UBN7). Put plainly: Deacetylase, Histone 6 (PanLab). Type of data set: biochemical. As to conditions: assay year 2014, read-out: % Control Response.
For a further data set, the target named is pCAF(h) (Homo sapiens, UniProt Q92831). Nature of the data set: Epigenetic enzyme assay, Histone acetyltransferases (HATs). It is filed as biochemical. To be noted: read-out: % Inhibition of Control Values.
The subject of data set [7] is Nitric Oxide Synthase, Inducible (iNOS). Put plainly: Nitric Oxide Synthase, Inducible (iNOS). Type of data set: biochemical. To be noted: 10 μM; assay year 2014.
The subject of data set [8] is Nitric Oxide Synthase, Endothelial (eNOS). Nature of the data set: Nitric Oxide Synthase, Endothelial (eNOS). Type of data set: biochemical. To be noted: 10 μM; assay year 2014.
In the next data set the target is Deacetylase, Histone 8 (Homo sapiens, UniProt Q9BY41). Nature of the data set: Deacetylase, Histone 8 (PanLab). Type of data set: biochemical. To be noted: assay year 2014, read-out: % Control Response.
A further data set deals with CYP2D6 (Homo sapiens, UniProt P10635). Put plainly: in vitro. To be noted: human liver microsomes, probe dextromethorphan. On the technique in general: Liver microsomes are a subcellular fraction often used to study metabolism.
A further data set has as its target Deacetylase, Histone 11 (Homo sapiens, UniProt Q96DB2). Nature of the data set: Deacetylase, Histone 11 (PanLab). It is filed as biochemical. To be noted: assay year 2014, read-out: % Control Response.
Data set [9] concerns the target Deacetylase, Sirtuin SIRT1 (Homo sapiens, UniProt Q96EB6). Nature of the data set: Deacetylase, Sirtuin SIRT1 (PanLab). Type of data set: biochemical. As to conditions: assay year 2014, read-out: % Control Response.
For another data set, the system named is H3K27 me2-1. Nature of the data set: Cell-based detection methyl modifications. To be noted: read-out: % Inhibition of Control Values.
The target in a further data set is JARID1B (h) (Homo sapiens, UniProt Q9UGL1). Put plainly: Epigenetic enzyme assay, Demethylases (KDMs). To be noted: for inhibition at 10 µM: read-out: % Inhibition of Control Values. It is filed as biochemical.
The target of another data set is DNMT3B/DNMT3L (h) (Homo sapiens, UniProt Q9UBC3). Put plainly: Epigenetic enzyme assay, DNA methyltransferases (DNMTs). To be noted: for inhibition at 10 µM: read-out: % Inhibition of Control Values. It is filed as biochemical.
In a further data set the target is T3, SMARCA2 (h) bromodomain (Homo sapiens, UniProt P51531).
T3 construct: Bromodomain
Put plainly: Epigenetic binding assay, Bromodomain. As to conditions: for inhibition at 10 µM: read-out: % Inhibition of Control Specific Binding.

The target in another data set is Deacetylase, Histone 9 (Homo sapiens, UniProt Q9UKV0). Put plainly: Deacetylase, Histone 9 (PanLab). Type of data set: biochemical. As to conditions: assay year 2014, read-out: % Control Response.
In the next data set the target is Deacetylase, Histone 5 (Homo sapiens, UniProt Q9UQL6). Nature of the data set: Deacetylase, Histone 5 (PanLab). It is filed as biochemical. As to conditions: assay year 2014, read-out: % Control Response.
The target of the next data set is T4, PB1(3) (h) bromodomain (Homo sapiens, UniProt Q86U86).
T4 construct: Bromodomain
Put plainly: Epigenetic binding assay, Bromodomain. As to conditions: read-out: % Inhibition of Control Specific Binding.

Data set [10] addresses sirtuin 1 (h) (activator effect) (Homo sapiens, UniProt Q96EB6). It is filed as biochemical. As to conditions: 10 μM.

PKBalpha/AKT1(h) (substrate histone H3 full length), sequence (P31749 whole entry): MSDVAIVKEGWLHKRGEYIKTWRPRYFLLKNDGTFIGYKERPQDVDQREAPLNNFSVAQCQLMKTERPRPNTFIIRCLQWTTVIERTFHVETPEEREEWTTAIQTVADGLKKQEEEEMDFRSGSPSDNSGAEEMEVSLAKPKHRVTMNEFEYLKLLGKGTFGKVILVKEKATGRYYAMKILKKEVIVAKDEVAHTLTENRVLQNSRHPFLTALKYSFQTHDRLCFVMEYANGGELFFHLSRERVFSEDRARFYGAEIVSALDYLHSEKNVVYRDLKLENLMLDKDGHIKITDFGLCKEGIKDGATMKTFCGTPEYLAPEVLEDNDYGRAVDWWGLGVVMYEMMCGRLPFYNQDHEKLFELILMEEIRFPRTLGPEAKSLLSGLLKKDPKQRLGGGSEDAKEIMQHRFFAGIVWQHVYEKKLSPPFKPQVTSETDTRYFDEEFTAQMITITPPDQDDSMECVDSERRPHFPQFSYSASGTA
JARID1B (h), sequence (Q9UGL1 whole entry): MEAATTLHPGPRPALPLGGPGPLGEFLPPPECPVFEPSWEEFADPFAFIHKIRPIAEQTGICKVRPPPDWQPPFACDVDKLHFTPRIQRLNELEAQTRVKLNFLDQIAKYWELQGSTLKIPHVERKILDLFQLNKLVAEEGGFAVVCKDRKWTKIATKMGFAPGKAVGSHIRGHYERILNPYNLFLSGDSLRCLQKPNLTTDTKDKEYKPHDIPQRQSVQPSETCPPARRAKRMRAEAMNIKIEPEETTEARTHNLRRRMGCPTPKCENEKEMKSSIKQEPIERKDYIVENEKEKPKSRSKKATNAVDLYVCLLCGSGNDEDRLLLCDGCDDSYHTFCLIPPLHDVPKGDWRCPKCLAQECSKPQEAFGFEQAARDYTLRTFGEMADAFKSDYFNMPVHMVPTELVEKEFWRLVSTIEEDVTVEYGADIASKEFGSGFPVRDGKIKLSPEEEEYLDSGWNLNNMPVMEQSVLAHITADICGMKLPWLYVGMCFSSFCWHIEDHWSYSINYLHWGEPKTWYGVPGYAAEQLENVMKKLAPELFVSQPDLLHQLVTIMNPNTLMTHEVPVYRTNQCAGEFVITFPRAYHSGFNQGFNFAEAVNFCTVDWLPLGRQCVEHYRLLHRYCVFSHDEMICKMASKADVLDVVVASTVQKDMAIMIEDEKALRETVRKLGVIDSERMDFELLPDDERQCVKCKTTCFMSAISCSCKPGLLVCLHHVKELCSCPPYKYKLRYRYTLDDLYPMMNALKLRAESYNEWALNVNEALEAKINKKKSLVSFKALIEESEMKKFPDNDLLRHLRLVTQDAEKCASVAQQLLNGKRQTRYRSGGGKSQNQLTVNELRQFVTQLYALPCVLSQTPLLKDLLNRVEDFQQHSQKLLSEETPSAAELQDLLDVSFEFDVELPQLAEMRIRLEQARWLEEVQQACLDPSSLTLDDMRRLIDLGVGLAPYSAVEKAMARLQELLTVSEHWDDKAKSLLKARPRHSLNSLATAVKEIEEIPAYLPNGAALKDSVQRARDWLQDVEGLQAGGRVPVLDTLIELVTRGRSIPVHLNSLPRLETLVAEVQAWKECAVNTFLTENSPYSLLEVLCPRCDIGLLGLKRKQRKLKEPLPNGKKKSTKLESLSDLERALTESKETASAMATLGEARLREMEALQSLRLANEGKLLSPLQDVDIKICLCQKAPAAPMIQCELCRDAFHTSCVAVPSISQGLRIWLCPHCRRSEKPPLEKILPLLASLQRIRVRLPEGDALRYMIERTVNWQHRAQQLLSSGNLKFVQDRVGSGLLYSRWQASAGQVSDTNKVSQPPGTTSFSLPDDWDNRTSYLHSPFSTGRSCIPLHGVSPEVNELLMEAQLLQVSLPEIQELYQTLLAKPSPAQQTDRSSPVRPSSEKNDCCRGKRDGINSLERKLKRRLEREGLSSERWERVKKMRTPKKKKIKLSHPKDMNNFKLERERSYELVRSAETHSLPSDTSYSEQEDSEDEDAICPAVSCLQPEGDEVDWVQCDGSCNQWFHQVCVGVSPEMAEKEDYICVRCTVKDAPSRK
NSD1 (h), sequence (Q96L73 whole entry): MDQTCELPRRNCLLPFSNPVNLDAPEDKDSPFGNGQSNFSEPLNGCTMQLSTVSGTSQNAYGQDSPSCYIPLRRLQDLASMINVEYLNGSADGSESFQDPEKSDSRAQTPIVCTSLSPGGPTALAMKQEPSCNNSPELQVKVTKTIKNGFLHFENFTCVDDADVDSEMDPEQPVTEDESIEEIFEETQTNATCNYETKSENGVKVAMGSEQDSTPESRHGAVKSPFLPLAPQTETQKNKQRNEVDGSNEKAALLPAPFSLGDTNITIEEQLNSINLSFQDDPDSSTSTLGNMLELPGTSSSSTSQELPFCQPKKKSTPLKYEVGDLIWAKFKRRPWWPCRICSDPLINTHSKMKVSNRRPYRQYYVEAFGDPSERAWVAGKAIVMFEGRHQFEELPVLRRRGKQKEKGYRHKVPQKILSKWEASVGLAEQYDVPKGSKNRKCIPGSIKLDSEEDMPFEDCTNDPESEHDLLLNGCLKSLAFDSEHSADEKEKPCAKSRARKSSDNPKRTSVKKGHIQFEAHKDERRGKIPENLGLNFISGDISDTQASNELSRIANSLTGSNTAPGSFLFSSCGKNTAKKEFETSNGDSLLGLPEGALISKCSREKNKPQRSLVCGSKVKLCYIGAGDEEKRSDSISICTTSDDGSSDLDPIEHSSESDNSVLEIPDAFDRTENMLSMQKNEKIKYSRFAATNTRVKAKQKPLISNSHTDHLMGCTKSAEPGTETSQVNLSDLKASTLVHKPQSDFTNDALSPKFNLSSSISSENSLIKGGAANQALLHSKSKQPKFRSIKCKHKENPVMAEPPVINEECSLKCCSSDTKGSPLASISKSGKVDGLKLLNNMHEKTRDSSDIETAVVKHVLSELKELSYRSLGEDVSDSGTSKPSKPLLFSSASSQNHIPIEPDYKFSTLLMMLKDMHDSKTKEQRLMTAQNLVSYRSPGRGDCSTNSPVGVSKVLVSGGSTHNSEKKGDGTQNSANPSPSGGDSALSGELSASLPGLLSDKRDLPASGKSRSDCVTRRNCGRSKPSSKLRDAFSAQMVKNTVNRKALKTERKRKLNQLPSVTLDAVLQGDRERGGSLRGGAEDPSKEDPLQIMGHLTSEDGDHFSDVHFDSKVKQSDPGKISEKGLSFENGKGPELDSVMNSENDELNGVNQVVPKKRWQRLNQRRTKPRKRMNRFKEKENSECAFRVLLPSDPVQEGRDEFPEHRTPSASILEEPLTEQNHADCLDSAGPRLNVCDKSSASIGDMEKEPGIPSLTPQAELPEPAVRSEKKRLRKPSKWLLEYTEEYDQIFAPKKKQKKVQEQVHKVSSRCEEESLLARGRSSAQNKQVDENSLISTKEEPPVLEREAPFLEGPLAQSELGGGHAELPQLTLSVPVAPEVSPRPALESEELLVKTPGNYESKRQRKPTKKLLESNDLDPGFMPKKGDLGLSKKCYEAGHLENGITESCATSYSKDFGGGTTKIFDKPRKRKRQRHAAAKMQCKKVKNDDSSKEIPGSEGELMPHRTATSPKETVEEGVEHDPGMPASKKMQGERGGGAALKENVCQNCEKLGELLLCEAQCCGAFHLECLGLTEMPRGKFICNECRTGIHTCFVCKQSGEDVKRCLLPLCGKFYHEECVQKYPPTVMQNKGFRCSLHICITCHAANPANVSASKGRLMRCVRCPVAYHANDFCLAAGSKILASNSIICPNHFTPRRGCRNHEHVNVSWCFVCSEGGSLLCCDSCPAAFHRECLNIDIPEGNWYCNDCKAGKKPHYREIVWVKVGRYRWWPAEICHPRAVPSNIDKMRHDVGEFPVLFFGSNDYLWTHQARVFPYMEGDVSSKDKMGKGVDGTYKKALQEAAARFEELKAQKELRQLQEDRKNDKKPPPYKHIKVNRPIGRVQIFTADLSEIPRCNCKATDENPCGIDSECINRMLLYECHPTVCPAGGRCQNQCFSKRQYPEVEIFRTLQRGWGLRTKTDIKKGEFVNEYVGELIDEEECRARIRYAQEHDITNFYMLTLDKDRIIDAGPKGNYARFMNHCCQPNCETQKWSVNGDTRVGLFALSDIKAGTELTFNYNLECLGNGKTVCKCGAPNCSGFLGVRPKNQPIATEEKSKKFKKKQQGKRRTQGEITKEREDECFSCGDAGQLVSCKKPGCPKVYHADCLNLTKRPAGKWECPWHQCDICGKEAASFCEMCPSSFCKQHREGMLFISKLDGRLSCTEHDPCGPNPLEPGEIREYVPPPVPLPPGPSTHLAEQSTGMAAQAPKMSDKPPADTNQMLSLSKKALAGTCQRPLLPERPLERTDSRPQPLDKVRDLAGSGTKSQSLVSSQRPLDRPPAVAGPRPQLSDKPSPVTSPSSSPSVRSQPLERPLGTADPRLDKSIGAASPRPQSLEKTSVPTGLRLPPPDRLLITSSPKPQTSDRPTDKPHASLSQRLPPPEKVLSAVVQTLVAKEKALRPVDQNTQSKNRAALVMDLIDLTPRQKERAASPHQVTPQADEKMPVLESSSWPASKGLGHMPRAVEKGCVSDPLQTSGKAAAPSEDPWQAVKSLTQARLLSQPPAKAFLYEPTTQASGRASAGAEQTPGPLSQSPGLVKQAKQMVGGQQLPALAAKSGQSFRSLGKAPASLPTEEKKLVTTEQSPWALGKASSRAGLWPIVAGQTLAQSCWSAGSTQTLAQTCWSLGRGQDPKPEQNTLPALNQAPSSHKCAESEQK
PIM1(h) (histone H3 full length substrate), sequence (P11309 whole entry): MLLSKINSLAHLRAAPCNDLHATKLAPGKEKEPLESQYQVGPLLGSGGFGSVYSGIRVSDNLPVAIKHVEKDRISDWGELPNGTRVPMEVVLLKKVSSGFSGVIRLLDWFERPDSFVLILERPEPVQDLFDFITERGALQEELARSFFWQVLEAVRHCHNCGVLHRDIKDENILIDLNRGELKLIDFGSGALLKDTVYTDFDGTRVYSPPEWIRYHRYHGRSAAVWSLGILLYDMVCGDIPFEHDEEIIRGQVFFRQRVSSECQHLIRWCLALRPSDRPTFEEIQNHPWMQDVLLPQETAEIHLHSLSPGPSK

For orientation: inhibition means the relative decrease from the control value, in per cent. In the case of `CC(C)=CCC[C@@H]1C(O)Oc2c(C)cc(O)c3c2[C@H]1CC[C@H]3C` (stereo partly shown) [Compound 2, 5,18-epoxyserrulat-14-en-8,18-diol], the remaining activity at 10 µM in [1] is -9%; in data set [3], 26%; on Monoamine Oxidase MAO-A (10 μM, assay year 2015), 34%; on Deacetylase, Histone 3, 25%; in data set [6] it was 5%; at Deacetylase, Histone 6, -17%. For the same compound, the remaining activity at 10 µM at Deacetylase, Histone 8 was 13%; on Deacetylase, Histone 11, 5%; in data set [9], -3%; on Deacetylase, Histone 9 it was -13%; at Deacetylase, Histone 5, -11%. Besides, the inhibition at 10 µM with H3K79 me2 is -16%; at SETD2(h) it was -4%; at GCN5L2(h), 5%; in data set [2], -19%; in [4], 5%; in data set [5] it was 11%. Further, the inhibition at 10 µM at NSD1 (h) was 29%; on pCAF(h), -26%; against CYP2D6, 44%; in the data set with H3K27 me2-1, 3%; at JARID1B (h) (10 μM), 6%; at DNMT3B/DNMT3L (h) it was 27%. Further, the inhibition at 10 µM at SMARCA2 (h) bromodomain is 21%; at PB1(3) (h) bromodomain it was 13%. Also, the “% Control Response” value in data set [7] turned out to be 7%; in data set [8] it was 5%. Moreover, on CYP2D6, the inhibition at 1 µM lay in the range of 12 to 21%.

For the compound `CC(C)=CCC[C@@H]1COc2c(C)cc(O)c3c2[C@H]1CC[C@H]3C` [Compound 3, 5,18-epoxy-8-hydroxyserrulat-14-ene], the inhibition at 10 µM with H3K79 me2 was -5%; at SETD2(h), -11%; on GCN5L2(h) it was 1%; in data set [2], -15%; in data set [4] it was -11%; in data set [5] it was 5%. The inhibition at 10 µM at NSD1 (h) is -10%; at pCAF(h) it was -20%; with H3K27 me2-1 it was 2%; on JARID1B (h) (10 μM), -2%; on DNMT3B/DNMT3L (h) it was -20%; on SMARCA2 (h) bromodomain, 18%. Besides, the inhibition at 10 µM on PB1(3) (h) bromodomain came to 6%. Further, the remaining activity at 10 µM on Monoamine Oxidase MAO-A (10 μM, assay year 2015) is 27%. Besides, the “% Stimulation Relative to Control” value in data set [10] is recorded as −4%.

As a reminder, the IC50 is the concentration at which inhibition is half-maximal. Consider `CC(C)=CCC[C@H](CO)[C@@H]1CC[C@@H](C)c2c1cc(C)c(O)c2O` [Compound 1, 7,8,18-trihydroxyserrulat-14-ene], for which the remaining activity at 10 µM in data set [1] was -6%; in [3], 0%; at Monoamine Oxidase MAO-A (10 μM, assay year 2015) it was 91%; at Deacetylase, Histone 3 it was -5%; in data set [6] it was 14%; at Deacetylase, Histone 6, 0%. The remaining activity at 10 µM is 29% on Deacetylase, Histone 8; 9% on Deacetylase, Histone 11; 6% in data set [9]; -14% on Deacetylase, Histone 9; -9% on Deacetylase, Histone 5. Also, the inhibition at 10 µM is -2% in the data set with H3K79 me2; -9% on SETD2(h); 11% on GCN5L2(h); -1% in data set [2]; 55% in [4]; 22% in data set [5]. Further, the inhibition at 10 µM is 69% on NSD1 (h); -25% on pCAF(h); 45% on CYP2D6; -2% with H3K27 me2-1; 70% on JARID1B (h) (10 μM); 23% at DNMT3B/DNMT3L (h). Moreover, the inhibition at 10 µM on SMARCA2 (h) bromodomain came out at 83%; at PB1(3) (h) bromodomain it was 38%. The “% Control Response” value at Monoamine Oxidase MAO-A (10 μM, assay year 2015) was “potent inhibitor”; in data set [7] it was 16%; in data set [8], 6%. Moreover, the IC50 is 6.47 µM and 6.74 µM at Monoamine Oxidase MAO-A (concentration-response 10 to 0.01 μM); 4.9 µM at NSD1 (h) (Table 11, inhibition/concentration-response curve, read-out: IC50); 3.6 µM at JARID1B (h) (Table 11, inhibition/concentration-response curve). In [10], the “% Stimulation Relative to Control” value was −5%. On CYP2D6, the inhibition at 1 µM lay within 12 to 21%. Also, the “% Inhibition of Control Values” on JARID1B (h) (10 μM) was “significant inhibitory activity”. The “% Inhibition of Control Specific Binding” value on SMARCA2 (h) bromodomain (10 μM) is recorded as “significant inhibitory activity”.

On to `CC(C)=CCC[C@H](C)[C@@H]1CC[C@@H](C)c2c1cc(C)c(O)c2O` [Compound 4, 7,8-dihydroxyserrulat-14-ene], for which, on CYP2D6, the inhibition at 1 µM was in the range of 12 to 21% and the inhibition at 10 µM came out at 45%.

For `Nc1ncnc2c1ncn2[C@@H]1O[C@H](CSCC[C@H](N)C(=O)O)[C@@H](O)[C@H]1O` [SAH], the IC50 on SETD2(h) (read-out: Reference IC50) came out at 1.2 µM; on DNMT3B/DNMT3L (h) (read-out: Reference IC50), 0.045 µM.
